Experimental data from patent US5776935A, “Pyrido-phtalazin diones and their use against neurological disorders associated with excitotoxicity and malfunctioning of glutamatergic neurotransmission” (Merz & Co. GmbH & Co., priority 1996, dated 1998).

Columns and labels:
NMDA receptor [1] = target: T1, NMDA receptor (Mus musculus, UniProt P35438); assay: Maximal electroshock (MES)-induced tonic convulsions; assay type: in vivo; settings: i.p.; for ED50: mouse, ip, 0.25 h, read-out: MES ID50
T1 construct: from tissue; host or cells: living mice (albino Swiss males for NMDA and PTZ tests, NMR females for MES)

[2] = target: T2, strychnine-insensitive glycine site (glycineB) of the NMDA receptor (rat cortical membranes) (Rattus norvegicus, UniProt P35439); assay: [3H]glycine binding assay; settings: 20 nM [3H]glycine, 100 μM strychnine
T2 construct: The cortex was dissected and homogenised in 20 volumes of ice-cold 0.32M sucrose; from tissue; host or cells: brain cortex membranes of male Sprague-Dawley rats
Method: Tissue preparation was performed according to Foster and Wong (1987). Male Sprague-Dawley rats (200-250g) were decapitated and their brains were removed rapidly. The cortex was dissected and homogenised in 20 volumes of ice-cold 0.32M sucrose using a glass-Teflon homogenizer. The homogenate was centrifuged at 1000×g for 10 min. The pellet was discarded and the supernatant centrifuged at 20,000×g for 20 min. The resulting pellet was resuspended in 20 volumes of distilled water and centrifuged for 20 min at 8000×g. Then the supernatant and the buffy coat were centrifuged three times (48,000× g for 20 min) in the presence of 5 mM Tris-HCl, pH 7.4. All centrifugation steps were carried out at 4° C. After resuspension in 5 volumes of 5 mM Tris-HCl, pH 7.4 the membrane suspension was frozen rapidly at -80° C. until the day of assay. On the day of assay the membranes were thawed and washed four times by resuspension in 5 mM Tris-HCl, pH 7.4 and centrifugation at 48,000× g for 20 min. The final pellet was suspended in assay buffer.
The amount of protein in the final membrane preparation was determined according to the method of Lowry (1951) with some modifications (Hartfree, 1972). 50 μl of Protein samples (in triplicates) were diluted to 1 ml with distilled water and treated with 0.9 ml of a solution containing 2 g potassium sodium tartrate and 10 g Na2 CO3 in 500 ml 1N NaOH and 500ml water. Blank and standard (with bovine serum albumin) were set up in the same way. The tubes were placed in a water bath at 50° C. for 10 min. and cooled at room temperature. 100 μl of a solution containing 2 g potassium sodium tartrate and 1 g CuSO4 x 5 H2 O in 90 ml water and 10 ml 1N NaOH were added. The samples were left at room temperature for at least 10 min., then 3 ml of Folin-Ciocalteu reagent (1 ml of reagent diluted with 15 ml water) was added rapidly during mixing. The tubes were again heated at 50° C. for 10 min. and cooled to room temperature. Absorbencies were then read in 1 cm cuvets at 650 nm. The final protein concentration used for our studies was between 100 and 250 μg/ml.
Incubation in both binding assays was terminated using a Millipore filter system. The samples, all in triplicate, were rinsed three times with 2.5 ml ice cold assay buffer over glass fibre filters obtained from Schleicher & Schuell under a constant vacuum. Following separation and rinse the filters were placed into scintillation liquid (5 ml; Ultima Gold) and radioactivity retained on the filters was determined by using conventional liquid scintillation counter (Hewlett Packard, Liquid Scintillation Analyser). `Total binding` was the absolute amount of radioligand bound in the absence of any additives whereas `non-specific` binding was determined in the presence of a high concentration of competitor.
[^3 H]glycine binding assay
[^3 H]glycine binding assays were performed according to the method described by Kessler and co-workers (1989). Rat cortical membranes were prepared as previously described and the final pellet was suspended in 50 mM Tris-acetate, pH 7.4. At least 5 different concentrations of test compounds were incubated with 2OnM [^3 H]glycine for 30 min at 4° C. in the presence of 100 μM strychnine. All compounds were dissolved in water or DMSO, respectively. Non-specific binding was determined by including 100 μM glycine in the incubation mixture. The incubation was terminated by diluting the samples with 2 ml of stop solution (50 mM Tris-HCl including 10 mM magnesium sulphate, pH 7.4, cooled to <2° C.) followed by a further rinse with 2.5 ml buffer. Filtration was performed as rapidly as possible.

NMDA receptor [3] = target: T1, NMDA receptor; assay: Pentylenetetrazol (PTZ)-induced convulsions; assay type: in vivo; settings: ip, 0.25 h, i.p., PTZ 90 mg/kg i.p., read-out: PTZ ID50
Method: (§1) To assess NMDA receptor antagonistic properties of the tested agents by assessing anticonvulsive effects. Additionally the role of organic acid transporters in the elimination from the brain of tested agents was assessed by using an inhibitor, Probenicid, on the duration of anticonvulsive activity.
(§2) Male albino Swiss mice (19-21 g) housed 10-15 per cage were used for the NMDA lethality test (Leander et al., 1988). For pentylenetetrazol (PTZ)-induced convulsions male albino Swiss mice (25-34 g.) housed 40 per cage (58×38×20 cm) were used while in the maximal electroshock (MES) and motor impairment tests NMR female mice (18-28 g) housed 5 per cage were employed. All animals were kept with water and food ad libittum under a 12-h light-dark cycle (light on at 6 a.m.), and at a controlled temperature (20°±0.5° C.). All experiments were performed between 10 a.m. and 5 p.m. Tested agents were injected 15 min. i.p before the induction of convulsions if not stated otherwise (see below). Mrz 2/502 was dissolved in saline added with NaOH. Most other agents were dissolved in the following solution: 0.606 g Tris; 5.0 g. glucose; 0.5 g. Tween 80; and 95 ml water. The choline and tetramethylammonium salts were dissolved in distilled water.
Pentylenetetrazol was injected at a dose of 90 mg/kg (i.p). The presence of general tonic convulsions was then scored for 30 min as this parameter is more sensitive to NMDA receptor antagonists than clonic convulsions. The pharmacological end-point was taken as the presence of tonus in the hind limbs with stretching.

NMDA receptor [4] = target: T1, NMDA receptor; assay: NMDA-induced convulsions / lethality test; assay type: in vivo; settings: ip, 0.25 h, i.p., 15 min before induction, read-out: NMDA ID50
Method: as §1, §2
In the NMDA-induced convulsions test in mice, a dose-response relationship for NMDA was first performed to determine the ED97 dose which was then used for testing of antagonistic properties. After injection of the ED97 dose of NMDA the animals were placed in a small cage (20×28×14 cm) and observed for 20 min. Death preceded by clonic convulsions and by tonic seizures was the pharmacological end-point.

## O=c1[nH]nc(O)c2c1cc1cc(Br)ccc1[n+]2[O-] [Mrz 2/514, 8-bromo-4-hydroxy-1-oxo-1,2-dihydropyridazino[4,5-b]-quinoline 5-oxide]
NMDA receptor [1]
  activity in the MES test: effective
NMDA receptor [1]; 15 min before induction
  ED50: 20.2 mg/kg
[2]
  IC50: 4 nM
NMDA receptor [3]
  ED50: 12.8 mg/kg
NMDA receptor [4]
  ED50: 99 mg/kg

## O=c1[nH][nH]c(=O)c2nc3cc(Cl)c(Cl)cc3cc12 [Mrz 2/515]
NMDA receptor [1]; 15 min before induction
  ED50: > 100 mg/kg
NMDA receptor [3]
  ED50: > 100 mg/kg
NMDA receptor [4]
  ED50: 98 mg/kg

## O=c1[nH][nH]c(=O)c2nc3ccc(Cl)cc3cc12 [Mrz 2/501]
NMDA receptor [1]; 15 min before induction
  ED50: > 100 mg/kg
[2]
  IC50: 80 nM
NMDA receptor [3]
  ED50: > 40 mg/kg
NMDA receptor [4]
  ED50: > 100 mg/kg

## O=c1[nH]nc(O)c2c1cc1cc(Cl)ccc1[n+]2[O-] [Mrz 2/502, 8-chloro-4-hydroxy-1-oxo-1,2-dihydropyridazino[4,5-b]-quinoline 5-oxide]
NMDA receptor [1]
  activity in the MES test: effective
NMDA receptor [1]; 15 min before induction, listed as 502, 15 min
  MES ID50: 47.6 mg/kg
[2]
  IC50: 13 nM
NMDA receptor [3]
  ED50: 8.3 mg/kg
NMDA receptor [4]
  ED50: 26 mg/kg

## O=c1[nH][nH]c(=O)c2nc3ccc(F)cc3cc12 [Mrz 2/519]
NMDA receptor [1]; 15 min before induction
  ED50: > 60 mg/kg
[2]
  IC50: 15 nM
NMDA receptor [3]
  ED50: > 100 mg/kg
NMDA receptor [4]
  ED50: > 100 mg/kg

## O=c1[nH][nH]c(=O)c2nc3ccc(Br)cc3cc12 [Mrz 2/503]
NMDA receptor [1]; 15 min before induction
  ED50: > 100 mg/kg
[2]
  IC50: 13 nM
NMDA receptor [3]
  ED50: > 100 mg/kg
NMDA receptor [4]
  ED50: > 100 mg/kg

## O=c1[nH]nc(O)c2c1cc1cc(F)ccc1[n+]2[O-] [Mrz 2/516, 8-fluoro-4-hydroxy-1-oxo-1,2-dihydropyridazino[4,5-b]-quinoline 5-oxide]
NMDA receptor [1]
  activity in the MES test: effective
NMDA receptor [1]; 15 min before induction
  ED50: 16.6 mg/kg
[2]
  IC50: 17 nM
NMDA receptor [3]
  ED50: 7.9 mg/kg
NMDA receptor [4]
  ED50: 40 mg/kg
